Where two headings read alike, the source gives them in different places.
Assays:
[1] = test system: Toxoplasma gondii ME49 tachyzoites; test: Toxoplasma gondii in vitro inhibition assay (3H-uracil incorporation); format: cell-based
MTT cytotoxicity assay = format: cell-based; conditions: human
Procedure: (§1) The MTT [3-(4, 5-dimethylthiazole-2-yl)-2, 5-diphenyltetrazolium bromide] reduction assay ([Mosmann, 1983]) was used to quantify the cytotoxic effects of the examined chalcones and bichalcones on the host cells. To avoid edge effects, only the inner 60 wells of each plate were used. Briefly, 5 × 10^4 Hs27 cells per well were cultured in 96-well microtiter plates in Iscove’s modified Dulbecco’s medium (IMDM, Gibco–Thermo Fisher Scientific, Braunschweig, Germany, #12440053) with a volume of 100 µL per well and incubated overnight at 37°C until confluence. Different concentrations of the compounds (ranging from 200 μM to 0.09 µM) were then added to the Hs27 cells. Controls included untreated Hs27 cells treated with DMSO, and cells treated with staurosporine (0.031, 0.062, 0.125, 0.25, 0.5, 1 µM) (Merck, Darmstadt, Germany, #S4400), a natural product known for its potent activity as apoptosis inducer ([Belmokhtar et al., 2001]). After 24 h of incubation, the culture media were replaced with 100 µL of Dulbecco’s Modified Eagle Medium (DMEM) medium without red phenol (Gibco-Thermo Fisher Scientific, Braunschweig, Germany, #21041025) plus 10% heat-inactivated fetal bovine serum (FBS Standard, South America origin, fetal bovine serum, […] sterile filtered, PAN-Biotech, Aidenbach, Germany, #P30-3,306), and […] 2-mercaptoethanol (Gibco-Thermo Fisher Scientific, Braunschweig, Germany, #21985023). The experiment was performed following the manufacturer’s instructions (CyQuant MTT Cell Viability Assay Kit, Thermo Fisher Scientific, Braunschweig, Germany, #V-13154). Optical density (O.D.) was measured at 570 nm using a microplate reader (TECAN Sunrise, Männedorf, Switzerland). The half-maximal cytotoxic concentration (CC50) values of each compound against Hs27 cells relative to DMSO-treated samples were determined using GraphPad PRISM™ statistical software (version 9.5.1; San Diego, CA). In addition, the selectivity index (SI) of each compound was calculated from the ratio of CC50/IC50.

[2] = Stability experiments (reverse phase HPLC purity); format: physicochemical
Procedure: Table S3: Purity results of the stability experiments over a varying time span at different
Entry Variations Time Purity [%]
Table S4: Reverse Phase HPLC chromatogram of bichalcone 2ab (rac) in DMSO stock solution […]
Table S5: Reverse Phase HPLC chromatogram of bichalcone 2ab (rac) in DMSO stock solution
Table S6: Reverse Phase HPLC chromatogram of bichalcone 2ab (rac) in DMSO at -78 °C for […]

human fibroblasts Hs27 = test: MTT cytotoxicity assay; format: cell-based; conditions: 24 h
Procedure: as §1

Toxoplasma gondii = test system: Toxoplasma gondii; set-up: method as in Touquet et al., 2018; conditions: literature value ref Touquet et al., 2018; cited from earlier work
[3] = Toxoplasma gondii, HS27, T. gondii ME49 tachyzoites in Hs27 host cells, 3H-uracil incorporation, n = 6, read-out: IC50 ± S.D.
[4] = T. gondii ME49 tachyzoites in Hs27 host cells, 3H-uracil incorporation, n = 6, read-out: IC50 ± S.D.
[5] = Toxoplasma gondii, HS27, read-out: IC50 ± S.D.
[6] = Hs27 cells, MTT, 24 h, n = 6, read-out: CC50

Row | Structure (SMILES) | IC50 [1, 3] [µM] | CC50 at 24 h (MTT cytotoxicity assay) [µM] | other results
1 | COc1cc(C)c(-c2c(C)cc(OC)c(C(=O)/C=C/c3ccccc3)c2O)c(O)c1C(=O)/C=C/c1ccccc1 (racemic) [2ab] | 0.11 ± 0.02 | > 200 | Purity ([2]; 22 °C, DMSO, 24 h): 75.9%; Purity ([2]; 40 °C, DMSO, 24 h): 76.6%; Purity ([2]; 40 °C, MeOH, 24 h): 89.7%; Purity ([2]; 40 °C, MeOH, KOH, 24 h): 35.6%; Purity ([2]; -20 °C, DMSO, 6 months): 96.2%
2 | COc1cc(C)c(-c2c(C)cc(OC)c(C(=O)/C=C/c3ccccc3)c2O)c(O)c1C(=O)/C=C/c1ccccc1 (single isomer, unassigned) [(R a)-2ab] | – | – | IC50 [1, 4]: 0.1 ± 0.01 µM; CC50 (human fibroblasts Hs27): > 200 µM
3 | COc1cc(C)c(-c2c(C)cc(OC)c(C(=O)/C=C/c3ccccc3)c2O)c(O)c1C(=O)/C=C/c1ccccc1 (single isomer, unassigned) [(S a)-2ab] | – | > 200 | IC50 [1, 4]: 0.31 ± 0.03 µM
4 | COc1ccc(/C=C/C(=O)c2c(O)cc(C)cc2OC)cc1 [1aa] | 21.8 ± 3.07 | 180 ± 32 | –
5 | COc1cc(C)cc(O)c1C(=O)/C=C/c1ccccc1 [1ab] | 14.1 ± 2.62 | 133 ± 28 | –
6 | COc1cc(C)cc(O)c1C(=O)/C=C/c1ccc(N(C)C)cc1 [1ac] | > 50 | > 200 | –
7 | COc1cc(C)cc(O)c1C(=O)/C=C/c1ccc(C(F)(F)F)cc1 [1ad] | > 50 | > 200 | –
8 | COc1cc(C)cc(O)c1C(=O)/C=C/c1ccc(Br)cc1 [1ae] | 10.6 ± 1.05 | 190 ± 99 | –
9 | COc1cc(C)cc(O)c1C(=O)/C=C/c1cccc(Br)c1 [1af] | 6.18 ± 0.55 | 134 ± 78 | –
10 | COc1cc(C)cc(O)c1C(=O)/C=C/c1ccccc1Br [1ag] | > 50 | > 200 | –
11 | COc1ccc(/C=C/C(=O)c2c(O)cc(OC)cc2OC)cc1 [1ba] | 8.08 ± 2.06 | > 200 | –
12 | COc1cc(O)c(C(=O)/C=C/c2ccccc2)c(OC)c1 [1bb] | 6.01 ± 2.54 | 87.8 ± 16 | –
13 | COc1cc(O)c(C(=O)/C=C/c2ccc(N(C)C)cc2)c(OC)c1 [1bc] | – | – | IC50 [1, 5]: > 50 µM; CC50 at 24 h (MTT cytotoxicity assay; [6]): > 200 µM
14 | COc1cc(O)c(C(=O)/C=C/c2ccc(C(F)(F)F)cc2)c(OC)c1 [1bd] | > 50 | > 200 | –
15 | COc1cc(O)c(C(=O)/C=C/c2ccc(Br)cc2)c(OC)c1 [1be] | – | – | IC50 [1, 5]: > 50 µM; CC50 at 24 h (MTT cytotoxicity assay; [6]): > 200 µM
16 | COc1cc(O)c(C(=O)/C=C/c2cccc(Br)c2)c(OC)c1 [1bf] | 11.3 ± 0.61 | > 200 | –

Row | Structure (SMILES) | IC50 [1, 3] [µM] | CC50 at 24 h (MTT cytotoxicity assay) [µM] | other results
17 | COc1cc(O)c(C(=O)/C=C/c2ccccc2Br)c(OC)c1 [1bg] | – | – | IC50 [1, 5]: 4.46 ± 0.46 µM; CC50 at 24 h (MTT cytotoxicity assay; [6]): 86.5 ± 72 µM
18 | COc1ccc(/C=C/C(=O)c2c(OC)cc(C)c(-c3c(C)cc(OC)c(C(=O)/C=C/c4ccc(OC)cc4)c3O)c2O)cc1 [2aa] | 6.63 ± 0.77 | > 200 | –
19 | COc1cc(C)c(-c2c(C)cc(OC)c(C(=O)/C=C/c3ccc(N(C)C)cc3)c2O)c(O)c1C(=O)/C=C/c1ccc(N(C)C)cc1 [2ac] | > 50 | > 200 | –
20 | COc1cc(C)c(-c2c(C)cc(OC)c(C(=O)/C=C/c3ccc(C(F)(F)F)cc3)c2O)c(O)c1C(=O)/C=C/c1ccc(C(F)(F)F)cc1 [2ad] | 24.7 ± 3.52 | > 200 | –
21 | COc1cc(C)c(-c2c(C)cc(OC)c(C(=O)/C=C/c3ccc(Br)cc3)c2O)c(O)c1C(=O)/C=C/c1ccc(Br)cc1 [2ae] | 7.91 ± 1.14 | > 200 | –
22 | COc1cc(C)c(-c2c(C)cc(OC)c(C(=O)/C=C/c3cccc(Br)c3)c2O)c(O)c1C(=O)/C=C/c1cccc(Br)c1 [2af] | 30.5 ± 7.21 | > 200 | –
23 | COc1cc(C)c(-c2c(C)cc(OC)c(C(=O)/C=C/c3ccccc3Br)c2O)c(O)c1C(=O)/C=C/c1ccccc1Br [2ag] | 18.44 ± 0.1 | > 200 | –
24 | COc1ccc(/C=C/C(=O)c2c(OC)cc(OC)c(-c3c(OC)cc(OC)c(C(=O)/C=C/c4ccc(OC)cc4)c3O)c2O)cc1 [2ba] | > 50 | > 200 | –
25 | COc1cc(OC)c(-c2c(OC)cc(OC)c(C(=O)/C=C/c3ccccc3)c2O)c(O)c1C(=O)/C=C/c1ccccc1 [2bb] | 9.75 ± 1.95 | > 200 | –
26 | COc1cc(OC)c(-c2c(OC)cc(OC)c(C(=O)/C=C/c3ccc(N(C)C)cc3)c2O)c(O)c1C(=O)/C=C/c1ccc(N(C)C)cc1 [2bc] | > 50 | > 200 | –
27 | COc1cc(OC)c(-c2c(OC)cc(OC)c(C(=O)/C=C/c3ccc(C(F)(F)F)cc3)c2O)c(O)c1C(=O)/C=C/c1ccc(C(F)(F)F)cc1 [2bd] | 3.09 ± 0.15 | > 200 | –
28 | COc1cc(OC)c(-c2c(OC)cc(OC)c(C(=O)/C=C/c3ccc(Br)cc3)c2O)c(O)c1C(=O)/C=C/c1ccc(Br)cc1 [2be] | 8.55 ± 1.28 | > 200 | –
29 | COc1cc(OC)c(-c2c(OC)cc(OC)c(C(=O)/C=C/c3cccc(Br)c3)c2O)c(O)c1C(=O)/C=C/c1cccc(Br)c1 [2bf] | 12.4 ± 2.09 | > 200 | –
30 | COc1cc(OC)c(-c2c(OC)cc(OC)c(C(=O)/C=C/c3ccccc3Br)c2O)c(O)c1C(=O)/C=C/c1ccccc1Br [2bg] | > 50 | > 200 | –
31 | CCc1nc(N)nc(N)c1-c1ccc(Cl)cc1 [PYR, pyrimethamine, reference compound] | 0.22 ± 0.05 | > 100 | IC50 (Toxoplasma gondii): 0.4 µM
